What all share (format): biochemical
The target of test [1] is T1, Arg(m) (Mus musculus, UniProt Q4JIM5).
T1 construct: purchased Millipore KinaseProfiler
Nature of the test: Kinase panel.

In test [2] the target is T2, Blk(m) (Mus musculus, UniProt P16277).
T2 construct: purchased Millipore KinaseProfiler
The test is described as follows: Kinase panel.

Test [3] concerns the target T3, cKit(D816V)(h) (Homo sapiens, UniProt P10721, D816V).
T3 construct: purchased Millipore KinaseProfiler
The test is described as follows: Kinase panel.

Test [4] addresses T4, EphA7(h) (Homo sapiens, UniProt Q15375).
T4 construct: purchased Millipore KinaseProfiler
Nature of the test: Kinase panel.

In test [5] the target is T5, EphA8(h) (Homo sapiens, UniProt P29322).
T5 construct: purchased Millipore KinaseProfiler
T5 sequence (P29322 28-1005): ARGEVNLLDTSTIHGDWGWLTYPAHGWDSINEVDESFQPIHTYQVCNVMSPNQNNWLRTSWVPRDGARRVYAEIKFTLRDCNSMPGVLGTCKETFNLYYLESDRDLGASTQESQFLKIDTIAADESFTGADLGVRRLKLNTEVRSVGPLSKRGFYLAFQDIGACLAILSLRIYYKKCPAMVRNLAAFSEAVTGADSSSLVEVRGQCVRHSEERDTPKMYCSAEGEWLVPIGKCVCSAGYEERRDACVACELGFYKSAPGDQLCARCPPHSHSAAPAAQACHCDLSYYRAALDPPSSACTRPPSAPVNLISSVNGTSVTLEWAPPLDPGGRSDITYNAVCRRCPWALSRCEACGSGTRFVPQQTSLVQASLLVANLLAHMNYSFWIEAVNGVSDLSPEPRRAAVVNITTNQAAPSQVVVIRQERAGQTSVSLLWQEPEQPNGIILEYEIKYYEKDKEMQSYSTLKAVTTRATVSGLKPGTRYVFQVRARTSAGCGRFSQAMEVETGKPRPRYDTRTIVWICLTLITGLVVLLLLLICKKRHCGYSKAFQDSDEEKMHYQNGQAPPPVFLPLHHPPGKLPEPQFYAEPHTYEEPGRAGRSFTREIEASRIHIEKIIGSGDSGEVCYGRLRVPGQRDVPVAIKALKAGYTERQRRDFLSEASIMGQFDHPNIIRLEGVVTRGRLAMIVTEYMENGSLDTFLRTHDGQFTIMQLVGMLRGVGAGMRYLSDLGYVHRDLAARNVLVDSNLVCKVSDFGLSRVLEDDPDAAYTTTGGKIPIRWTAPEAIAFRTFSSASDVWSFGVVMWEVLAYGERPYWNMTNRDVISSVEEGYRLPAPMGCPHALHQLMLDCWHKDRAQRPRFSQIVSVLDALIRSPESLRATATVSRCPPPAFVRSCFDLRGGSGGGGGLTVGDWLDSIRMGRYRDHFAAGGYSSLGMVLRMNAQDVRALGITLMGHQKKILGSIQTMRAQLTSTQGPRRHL
The test is described as follows: Kinase panel.

Test [6] addresses T6, MRCKα(h) (Homo sapiens, UniProt Q5VT25).
T6 construct: purchased Millipore KinaseProfiler
Nature of the test: Kinase panel.

For test [7], the target named is T7, PKCβI(h) (Homo sapiens, UniProt P05771).
T7 construct: purchased Millipore KinaseProfiler
Nature of the test: Kinase panel.

For test [8], the target named is T8, PKCμ(h) (Homo sapiens, UniProt Q15139).
T8 construct: purchased Millipore KinaseProfiler
T8 sequence (Q15139 1-912): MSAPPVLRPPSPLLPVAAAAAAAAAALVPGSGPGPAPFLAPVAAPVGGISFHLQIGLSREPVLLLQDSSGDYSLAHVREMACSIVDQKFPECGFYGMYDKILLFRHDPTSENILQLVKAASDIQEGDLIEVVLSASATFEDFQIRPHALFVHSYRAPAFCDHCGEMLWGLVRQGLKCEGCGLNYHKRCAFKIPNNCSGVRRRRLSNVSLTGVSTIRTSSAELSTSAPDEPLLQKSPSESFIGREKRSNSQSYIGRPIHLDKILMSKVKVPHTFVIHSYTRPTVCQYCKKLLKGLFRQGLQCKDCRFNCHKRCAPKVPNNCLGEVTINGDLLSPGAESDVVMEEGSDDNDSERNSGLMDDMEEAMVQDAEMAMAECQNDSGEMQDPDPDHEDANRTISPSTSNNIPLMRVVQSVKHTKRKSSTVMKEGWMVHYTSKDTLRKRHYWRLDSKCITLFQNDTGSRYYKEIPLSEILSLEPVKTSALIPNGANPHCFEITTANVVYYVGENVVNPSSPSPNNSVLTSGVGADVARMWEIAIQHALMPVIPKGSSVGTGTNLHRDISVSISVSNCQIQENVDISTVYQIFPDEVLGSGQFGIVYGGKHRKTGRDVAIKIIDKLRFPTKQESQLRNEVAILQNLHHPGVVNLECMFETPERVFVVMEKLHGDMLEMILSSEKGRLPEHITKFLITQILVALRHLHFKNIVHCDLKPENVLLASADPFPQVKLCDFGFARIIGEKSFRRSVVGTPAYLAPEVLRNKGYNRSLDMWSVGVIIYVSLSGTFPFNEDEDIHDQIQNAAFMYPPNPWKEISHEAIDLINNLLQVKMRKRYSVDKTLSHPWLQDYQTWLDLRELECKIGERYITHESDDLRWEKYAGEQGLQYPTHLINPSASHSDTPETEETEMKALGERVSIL
Nature of the test: Kinase panel.

Test [9] addresses T9, SIK(h) (Homo sapiens, UniProt P57059).
T9 construct: purchased Millipore KinaseProfiler
Nature of the test: Kinase panel.

Test [10] concerns the target T10, TLK2(h) (Homo sapiens, UniProt Q86UE8).
T10 construct: purchased Millipore KinaseProfiler
The test is described as follows: Kinase panel.

Test [11] concerns the target PKCγ (Homo sapiens, UniProt P05129). Nature of the test: Kinase IC50 assay.

Like-named read-outs stand apart in the source and are kept apart here.

T1 sequence (Q4JIM5 2-1182 limits assumed): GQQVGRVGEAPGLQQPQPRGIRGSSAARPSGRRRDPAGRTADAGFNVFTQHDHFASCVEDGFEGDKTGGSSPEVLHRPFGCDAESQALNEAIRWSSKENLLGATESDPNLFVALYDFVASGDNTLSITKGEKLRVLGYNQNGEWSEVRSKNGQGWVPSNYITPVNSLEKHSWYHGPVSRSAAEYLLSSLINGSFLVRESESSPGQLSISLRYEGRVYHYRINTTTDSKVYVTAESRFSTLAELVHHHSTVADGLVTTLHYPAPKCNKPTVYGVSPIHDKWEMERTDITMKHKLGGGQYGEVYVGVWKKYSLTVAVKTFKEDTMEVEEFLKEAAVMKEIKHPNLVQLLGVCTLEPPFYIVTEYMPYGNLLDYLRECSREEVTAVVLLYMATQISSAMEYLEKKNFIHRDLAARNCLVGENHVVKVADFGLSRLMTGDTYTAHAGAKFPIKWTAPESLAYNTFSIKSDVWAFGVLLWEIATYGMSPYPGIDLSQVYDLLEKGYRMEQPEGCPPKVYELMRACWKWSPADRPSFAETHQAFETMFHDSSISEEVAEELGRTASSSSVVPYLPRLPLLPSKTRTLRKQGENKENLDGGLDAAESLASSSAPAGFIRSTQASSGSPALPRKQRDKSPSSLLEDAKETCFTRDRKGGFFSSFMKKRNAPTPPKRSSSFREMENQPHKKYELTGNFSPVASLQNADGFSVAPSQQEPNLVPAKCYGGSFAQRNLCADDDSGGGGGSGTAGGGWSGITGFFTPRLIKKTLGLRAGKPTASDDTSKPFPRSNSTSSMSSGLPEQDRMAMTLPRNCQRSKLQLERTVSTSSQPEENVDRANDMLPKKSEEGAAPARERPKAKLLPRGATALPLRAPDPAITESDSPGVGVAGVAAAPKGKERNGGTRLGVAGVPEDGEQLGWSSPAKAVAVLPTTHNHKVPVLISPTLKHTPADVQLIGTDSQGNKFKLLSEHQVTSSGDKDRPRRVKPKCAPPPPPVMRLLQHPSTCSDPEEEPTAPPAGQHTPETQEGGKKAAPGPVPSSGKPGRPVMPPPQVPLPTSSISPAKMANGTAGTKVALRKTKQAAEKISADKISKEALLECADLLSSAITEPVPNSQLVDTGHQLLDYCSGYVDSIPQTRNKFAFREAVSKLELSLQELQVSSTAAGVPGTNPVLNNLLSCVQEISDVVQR
T4 sequence (Q15375 28-998): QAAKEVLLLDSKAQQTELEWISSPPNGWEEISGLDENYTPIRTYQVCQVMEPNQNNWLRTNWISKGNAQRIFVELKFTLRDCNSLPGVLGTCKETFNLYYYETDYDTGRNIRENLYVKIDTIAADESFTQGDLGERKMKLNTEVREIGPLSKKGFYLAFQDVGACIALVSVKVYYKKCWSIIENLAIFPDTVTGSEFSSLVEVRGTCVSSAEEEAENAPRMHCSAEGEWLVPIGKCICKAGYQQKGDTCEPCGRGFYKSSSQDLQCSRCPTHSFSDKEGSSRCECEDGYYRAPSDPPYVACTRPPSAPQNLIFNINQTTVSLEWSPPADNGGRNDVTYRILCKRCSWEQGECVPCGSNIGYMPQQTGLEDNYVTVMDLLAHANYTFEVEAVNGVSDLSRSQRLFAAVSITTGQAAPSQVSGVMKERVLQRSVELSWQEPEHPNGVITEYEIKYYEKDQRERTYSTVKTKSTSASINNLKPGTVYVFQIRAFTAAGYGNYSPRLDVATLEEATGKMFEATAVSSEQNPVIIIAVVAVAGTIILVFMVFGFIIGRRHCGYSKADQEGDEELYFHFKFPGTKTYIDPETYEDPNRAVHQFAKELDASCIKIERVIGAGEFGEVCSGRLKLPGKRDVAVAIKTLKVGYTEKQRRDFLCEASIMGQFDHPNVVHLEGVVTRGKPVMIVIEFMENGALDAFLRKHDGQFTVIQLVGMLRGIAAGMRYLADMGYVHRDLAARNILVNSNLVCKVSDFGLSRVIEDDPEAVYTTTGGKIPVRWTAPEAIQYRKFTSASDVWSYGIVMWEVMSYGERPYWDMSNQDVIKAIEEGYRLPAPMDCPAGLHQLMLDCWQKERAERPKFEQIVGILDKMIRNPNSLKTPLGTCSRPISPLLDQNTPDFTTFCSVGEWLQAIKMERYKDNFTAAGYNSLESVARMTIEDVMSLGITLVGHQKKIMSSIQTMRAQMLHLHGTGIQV
T9 sequence (P57059 whole entry): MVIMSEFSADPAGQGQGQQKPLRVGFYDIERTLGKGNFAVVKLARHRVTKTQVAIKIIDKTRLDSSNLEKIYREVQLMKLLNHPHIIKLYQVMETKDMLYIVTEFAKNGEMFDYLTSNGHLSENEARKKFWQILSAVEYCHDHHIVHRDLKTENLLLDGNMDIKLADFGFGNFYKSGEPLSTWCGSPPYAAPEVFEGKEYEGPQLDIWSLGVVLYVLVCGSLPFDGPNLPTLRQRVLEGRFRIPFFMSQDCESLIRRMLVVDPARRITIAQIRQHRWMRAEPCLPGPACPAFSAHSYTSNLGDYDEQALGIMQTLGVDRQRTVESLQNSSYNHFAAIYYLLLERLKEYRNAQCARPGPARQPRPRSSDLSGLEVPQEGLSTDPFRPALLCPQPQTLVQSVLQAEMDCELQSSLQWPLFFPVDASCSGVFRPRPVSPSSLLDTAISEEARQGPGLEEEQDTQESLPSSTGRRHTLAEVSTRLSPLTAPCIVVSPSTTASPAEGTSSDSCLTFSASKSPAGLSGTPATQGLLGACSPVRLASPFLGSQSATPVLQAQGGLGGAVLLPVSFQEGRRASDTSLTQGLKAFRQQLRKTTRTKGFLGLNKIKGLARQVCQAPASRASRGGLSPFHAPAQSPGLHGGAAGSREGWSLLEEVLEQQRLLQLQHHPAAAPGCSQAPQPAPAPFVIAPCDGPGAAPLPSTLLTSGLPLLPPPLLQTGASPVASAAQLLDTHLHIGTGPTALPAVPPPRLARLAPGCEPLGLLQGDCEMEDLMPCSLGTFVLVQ
T6 sequence (Q5VT25 whole entry): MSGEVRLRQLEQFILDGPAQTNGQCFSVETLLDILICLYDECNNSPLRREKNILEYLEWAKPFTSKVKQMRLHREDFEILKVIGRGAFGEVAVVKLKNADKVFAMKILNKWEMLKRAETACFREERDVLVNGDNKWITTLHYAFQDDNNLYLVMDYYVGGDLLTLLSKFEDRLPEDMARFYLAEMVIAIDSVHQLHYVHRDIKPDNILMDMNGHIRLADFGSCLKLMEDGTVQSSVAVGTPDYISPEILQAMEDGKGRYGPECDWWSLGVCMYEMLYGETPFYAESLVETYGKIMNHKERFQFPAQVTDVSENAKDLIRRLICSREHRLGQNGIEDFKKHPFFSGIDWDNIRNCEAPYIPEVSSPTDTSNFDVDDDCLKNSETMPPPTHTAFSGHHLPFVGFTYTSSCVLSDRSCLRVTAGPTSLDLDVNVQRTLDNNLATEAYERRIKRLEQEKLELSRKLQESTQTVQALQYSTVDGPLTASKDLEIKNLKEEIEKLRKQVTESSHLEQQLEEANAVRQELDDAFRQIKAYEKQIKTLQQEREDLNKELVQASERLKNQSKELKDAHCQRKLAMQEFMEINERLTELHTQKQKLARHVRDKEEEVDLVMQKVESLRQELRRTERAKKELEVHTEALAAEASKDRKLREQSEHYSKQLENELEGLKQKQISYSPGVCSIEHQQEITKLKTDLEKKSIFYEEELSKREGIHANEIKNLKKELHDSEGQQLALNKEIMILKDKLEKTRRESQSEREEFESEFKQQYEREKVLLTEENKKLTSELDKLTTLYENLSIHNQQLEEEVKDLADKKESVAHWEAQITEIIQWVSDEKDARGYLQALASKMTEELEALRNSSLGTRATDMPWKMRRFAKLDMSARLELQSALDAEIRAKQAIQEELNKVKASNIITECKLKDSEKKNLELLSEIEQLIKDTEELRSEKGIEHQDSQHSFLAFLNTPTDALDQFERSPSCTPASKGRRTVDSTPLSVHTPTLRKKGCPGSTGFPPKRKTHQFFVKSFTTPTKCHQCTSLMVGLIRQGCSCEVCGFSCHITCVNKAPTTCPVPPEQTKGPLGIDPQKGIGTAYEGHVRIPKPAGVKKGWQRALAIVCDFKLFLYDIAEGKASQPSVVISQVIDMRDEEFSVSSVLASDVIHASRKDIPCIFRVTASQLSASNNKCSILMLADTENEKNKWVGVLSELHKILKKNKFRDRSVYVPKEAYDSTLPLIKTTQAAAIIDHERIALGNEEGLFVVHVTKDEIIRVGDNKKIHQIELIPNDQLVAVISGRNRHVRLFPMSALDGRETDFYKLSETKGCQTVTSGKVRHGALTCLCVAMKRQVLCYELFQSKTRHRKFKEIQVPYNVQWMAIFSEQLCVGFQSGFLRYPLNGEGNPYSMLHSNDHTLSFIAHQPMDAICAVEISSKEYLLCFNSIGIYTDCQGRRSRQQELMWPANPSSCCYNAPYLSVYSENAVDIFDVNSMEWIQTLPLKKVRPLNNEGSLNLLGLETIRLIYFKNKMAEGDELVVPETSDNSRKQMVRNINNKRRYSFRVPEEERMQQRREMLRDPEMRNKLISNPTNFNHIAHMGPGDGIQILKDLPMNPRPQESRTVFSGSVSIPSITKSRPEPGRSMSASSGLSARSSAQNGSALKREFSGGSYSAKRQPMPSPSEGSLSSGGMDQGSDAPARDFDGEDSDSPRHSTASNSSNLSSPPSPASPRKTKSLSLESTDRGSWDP

As for `Cn1ncc(Cl)c1-c1cc(C(=O)N[C@H](CN)Cc2cccc(F)c2)sc1Cl` [GSK2110183], the inhibition (commonly the change of the read-out against control, counted positive when it falls) at 0.5 µM in [1] was -1%; in test [2] it was -12%; in [3], 0%; in test [4], -4%; in [5], -19%; in test [6], -9%. Also, the inhibition at 0.5 µM in test [7] was 61%; in test [8], 27%; in test [9] it was -6%; in [10], -2%. Further, the inhibition at 10 µM in test [1] was 1%; in test [2], 9%; in test [3], 9%; in [4], 8%; in test [5], -7%; in test [6] it was -5%. Besides, the inhibition at 10 µM is 96% in test [7], 81% in test [8], 16% in [9] and -1% in test [10]. Further, the IC50 (usually the midpoint of a concentration-inhibition curve) in test [11] is above 1000 nM.
In the case of `Cn1ncc(Cl)c1-c1cc(C(=O)N[C@H](CN)Cc2ccc(F)c(F)c2)oc1Cl` [GSK2141795], the inhibition at 0.5 µM in test [1] (0.5 µM, read-out: % Inhibition) was -1%; in test [2] (0.5 µM, read-out: % Inhibition) it was -35%; in test [3] (0.5 µM, read-out: % Inhibition), -17%; in [4] (0.5 µM, read-out: % Inhibition), -3%; in [5] (0.5 µM, read-out: % Inhibition) it was -4%; in test [6] (0.5 µM, read-out: % Inhibition), -6%. In addition, the inhibition at 0.5 µM was 74% in [7] (0.5 µM, read-out: % Inhibition); 37% in test [8] (0.5 µM, read-out: % Inhibition); -4% in test [9] (0.5 µM, read-out: % Inhibition); -11% in [10] (0.5 µM, read-out: % Inhibition). Moreover, the inhibition at 10 µM in [1] (10 µM, read-out: % Inhibition) was 7%; in [2] (10 µM, read-out: % Inhibition) it was 8%; in [3] (10 µM, read-out: % Inhibition), -16%; in [4] (10 µM, read-out: % Inhibition), 16%; in test [5] (10 µM, read-out: % Inhibition), 25%; in test [6] (10 µM, read-out: % Inhibition), -2%. The inhibition at 10 µM in [7] (10 µM, read-out: % Inhibition) was 97%; in test [8] (10 µM, read-out: % Inhibition) it was 91%; in test [9] (10 µM, read-out: % Inhibition), 64%; in [10] (10 µM, read-out: % Inhibition) it was 10%. In [11], this compound gave an IC50 of 200 nM.

Values taken from article PMC4076210, “Discovery of Novel AKT Inhibitors with Enhanced Anti-Tumor Effects in Combination with the MEK Inhibitor” (PLoS ONE, 2014).
